From patent publication US9181264B2, “Fused heteroaryls and their uses” (Hutchison MediPharma Limited, priority 2011, dated 2015)

Experiments:
mTOR kinase = target: T1, mTOR kinase (Homo sapiens, UniProt P42345); assay: mTOR LanthaScreen TR-FRET assay; format: biochemical; details: 10 μmol/L ATP, GFP-4EBP1 substrate; read-out: IC50, inhibition of mTOR
T1 construct: purchased Invitrogen PV4753
Description: Compounds are tested using LanthaScreen TR-FRET Assay. The kinase reaction is completed in 384-well black plate (Corning, Cat. 3676). The final conditions for kinase assay are: 10 μmol/L of ATP, 0.2 ng/μL of mTOR kinase, 0.4 μmol/L of GFP-4EBP1 substrate and assay buffer (50 mmol/L of HEPES, pH 7.5, 0.01% of Tween 20, 1 mmol/L of EGTA, 10 mmol/L of MnCl2, 2 mmol/L of DTT and 1% DMSO).
To each well, 2.5 μL of test compounds in 4% DMSO and 2.5 μL of 0.8 ng/μL mTOR kinase (Invitrogen, PV4753) diluted in assay buffer are added. The reaction is initiated by the addition of 5 μL mixture of 0.8 μmol/L GFP-4EBP1 Substrate (Invitorgen, PV4759) and 20 μmol/L ATP mixtures. The mixture is incubated at room temperature for 60 minutes. 10 μL of 20 mmol/L EDTA and 4 nmol/L Tb-anti-p4EBP1 [pThr46] antibody (Invitrogen, PV4755) diluted in TR-FRET dilution buffer are added and incubated for an additional 1 hour. The plate is then read in a BioTek Synergy2 Reader at excitation of 340 nm and emission of 490 nm and 528 nm.
The inhibition of test compound is calculated based on the ratio of 528 nm/490 nm. IC50 of test compound is obtained using XLfit 2.0 software.

PI3Kα kinase = target: T2, PI3Kα kinase (Homo sapiens, UniProt P42336); assay: PI3Ka Transcreener ADP assay (fluorescence polarization); format: biochemical; details: 10 μM ATP, 30 μmol/L lipid substrate; read-out: IC50, inhibition of PI3Kα kinase
T2 construct: purchased Invitrogen PV4788
T2 sequence (P42336 whole entry): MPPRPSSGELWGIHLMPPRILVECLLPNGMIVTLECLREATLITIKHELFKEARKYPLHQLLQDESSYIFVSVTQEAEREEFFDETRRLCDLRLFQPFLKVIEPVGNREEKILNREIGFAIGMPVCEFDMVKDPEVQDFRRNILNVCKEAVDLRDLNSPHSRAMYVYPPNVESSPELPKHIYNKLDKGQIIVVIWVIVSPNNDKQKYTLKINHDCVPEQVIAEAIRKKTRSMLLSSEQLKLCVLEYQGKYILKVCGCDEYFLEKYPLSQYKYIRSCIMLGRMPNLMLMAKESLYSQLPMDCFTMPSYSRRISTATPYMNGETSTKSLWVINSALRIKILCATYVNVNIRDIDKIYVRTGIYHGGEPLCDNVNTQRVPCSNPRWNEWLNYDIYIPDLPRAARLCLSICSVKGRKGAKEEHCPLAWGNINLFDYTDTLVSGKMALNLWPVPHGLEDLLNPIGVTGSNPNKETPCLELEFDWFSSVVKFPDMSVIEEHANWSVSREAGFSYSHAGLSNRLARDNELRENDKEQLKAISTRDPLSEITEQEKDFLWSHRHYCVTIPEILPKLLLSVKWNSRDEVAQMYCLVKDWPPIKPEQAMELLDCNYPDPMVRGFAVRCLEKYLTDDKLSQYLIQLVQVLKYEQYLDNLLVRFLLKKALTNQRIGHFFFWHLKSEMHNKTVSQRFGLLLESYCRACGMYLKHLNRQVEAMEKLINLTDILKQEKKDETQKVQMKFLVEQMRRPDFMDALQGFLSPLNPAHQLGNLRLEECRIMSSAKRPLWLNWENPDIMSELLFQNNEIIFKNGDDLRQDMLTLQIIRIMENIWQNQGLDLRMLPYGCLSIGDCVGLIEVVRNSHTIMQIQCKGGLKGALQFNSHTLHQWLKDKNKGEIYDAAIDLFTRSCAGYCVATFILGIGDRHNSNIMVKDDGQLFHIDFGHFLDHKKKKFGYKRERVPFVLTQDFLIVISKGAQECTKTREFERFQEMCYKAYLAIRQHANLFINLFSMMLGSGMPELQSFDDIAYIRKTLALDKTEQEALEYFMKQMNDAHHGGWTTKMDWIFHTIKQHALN
T2 sequence (P27986 whole entry partner): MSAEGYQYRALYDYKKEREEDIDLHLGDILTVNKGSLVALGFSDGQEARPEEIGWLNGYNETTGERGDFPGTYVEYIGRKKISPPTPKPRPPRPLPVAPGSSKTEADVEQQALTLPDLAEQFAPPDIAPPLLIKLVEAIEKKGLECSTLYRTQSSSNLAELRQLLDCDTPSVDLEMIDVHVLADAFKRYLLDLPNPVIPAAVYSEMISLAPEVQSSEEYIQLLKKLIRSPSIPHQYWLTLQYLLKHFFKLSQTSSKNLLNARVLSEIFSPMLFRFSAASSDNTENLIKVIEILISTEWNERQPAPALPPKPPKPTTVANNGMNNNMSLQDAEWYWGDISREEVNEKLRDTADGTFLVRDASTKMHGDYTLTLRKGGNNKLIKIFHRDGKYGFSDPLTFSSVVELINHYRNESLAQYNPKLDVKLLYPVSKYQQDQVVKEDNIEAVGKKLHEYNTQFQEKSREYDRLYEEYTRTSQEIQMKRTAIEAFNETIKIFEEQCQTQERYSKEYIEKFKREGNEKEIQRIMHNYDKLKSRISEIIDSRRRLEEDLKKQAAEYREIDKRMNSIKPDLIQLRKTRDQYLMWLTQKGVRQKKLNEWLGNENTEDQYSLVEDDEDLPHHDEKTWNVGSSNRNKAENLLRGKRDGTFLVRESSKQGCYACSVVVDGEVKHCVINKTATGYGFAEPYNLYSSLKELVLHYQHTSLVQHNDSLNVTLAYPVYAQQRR
Description: Fluorescence polarization was used in this assay. The final conditions for kinase assay are 10 μM of ATP, 0.2 ng/μL of PI3Kα kinase, 30 μmol/L of lipid substrate and assay buffer (50 mmol/L of HEPES (pH 7.5), 100 mmol/L of NaCl, 1 mmol/L of EGTA, 3 mmol/L of MgCl2, 1 mmol/L of DTT and 0.03% CHAPS and 2% DMSO).
5 μL of test compounds in 10% DMSO and 10 μL of 0.5 ng/μL PI3K kinase (Invitrogen, PV4788) in assay buffer are put into a 96-well plate (Greiner, Cat. 675076), and then the reaction is started by the addition of 10 μL of 75 μmol/L PIP2, (PS Lipid Substrate Invitrogen, PV5100), and 25 μmol/L ATP mixture. After the mixture is incubated for 60 minutes at room temperature, 25 μL of transcreener Kinase Kit reagent—ADP Detection Mix—(Bellbrook Labs) is added, and the reaction is continued for an additional 1.5 hours. At the end, the plate is read in a Tecan Infinite F500 at excitation of 610 nm and emission of 670 nm.
A standard curve for ADP is obtained in a parallel way by replacing compound and PI3Kα kinase with DMSO and assay buffer, respectively. Different concentration of ADP, 0-10 μM, and ATP, 10-0 μM (ATP+ADP equal to 10 μM) are applied instead of a fixed concentration of ATP in this standard curve assay. Other conditions are the same as described above. The standard curve is plotted using Origin 8.0 software. The inhibition of test compound on ADP production is calculated based on ADP concentration from standard curve. IC50 is obtained using XLfit 2.0 software.

T1 sequence (P42345 1360-2549 limits assumed): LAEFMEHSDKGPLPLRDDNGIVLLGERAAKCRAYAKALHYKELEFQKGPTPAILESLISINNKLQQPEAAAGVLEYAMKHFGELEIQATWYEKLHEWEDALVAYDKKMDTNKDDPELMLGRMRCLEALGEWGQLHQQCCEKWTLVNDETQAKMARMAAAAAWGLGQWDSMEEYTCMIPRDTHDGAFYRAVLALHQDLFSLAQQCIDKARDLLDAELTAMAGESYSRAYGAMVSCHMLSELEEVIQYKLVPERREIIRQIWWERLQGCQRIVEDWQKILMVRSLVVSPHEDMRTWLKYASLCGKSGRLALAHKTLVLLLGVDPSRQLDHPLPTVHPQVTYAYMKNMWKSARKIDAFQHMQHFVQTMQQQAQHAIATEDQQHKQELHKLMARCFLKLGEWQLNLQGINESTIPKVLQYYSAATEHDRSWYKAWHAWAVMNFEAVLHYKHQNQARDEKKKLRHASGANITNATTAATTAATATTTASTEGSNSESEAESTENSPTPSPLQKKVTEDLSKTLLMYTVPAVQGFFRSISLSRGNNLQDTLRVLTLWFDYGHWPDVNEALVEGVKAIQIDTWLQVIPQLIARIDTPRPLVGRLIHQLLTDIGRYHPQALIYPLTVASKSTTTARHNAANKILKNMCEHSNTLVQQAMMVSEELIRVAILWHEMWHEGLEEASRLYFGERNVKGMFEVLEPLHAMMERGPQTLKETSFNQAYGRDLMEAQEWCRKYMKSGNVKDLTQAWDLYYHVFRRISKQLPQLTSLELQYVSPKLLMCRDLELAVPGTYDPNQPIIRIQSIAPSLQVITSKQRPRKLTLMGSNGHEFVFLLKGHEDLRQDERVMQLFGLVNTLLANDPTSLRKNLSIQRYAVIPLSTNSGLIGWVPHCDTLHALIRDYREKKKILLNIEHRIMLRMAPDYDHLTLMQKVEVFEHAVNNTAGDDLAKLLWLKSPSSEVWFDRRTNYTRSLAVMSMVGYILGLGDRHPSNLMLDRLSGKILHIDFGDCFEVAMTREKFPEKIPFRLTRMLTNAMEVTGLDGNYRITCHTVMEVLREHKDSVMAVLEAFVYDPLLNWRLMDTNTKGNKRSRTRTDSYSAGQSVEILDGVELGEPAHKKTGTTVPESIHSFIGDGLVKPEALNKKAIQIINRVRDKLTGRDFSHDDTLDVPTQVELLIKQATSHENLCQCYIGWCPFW

| SMILES | IC50 (mTOR kinase) | IC50 (PI3Kα kinase) |
| --- | --- | --- |
| C[C@H](O)C(=O)N1CCC(n2nnc3cnc4ccc(-c5cnc(N)c(C(F)(F)F)c5)nc4c32)CC1 [Compound 1, (S)-1-(4-(8-(6-amino-5-(trifluoromethyl)pyridin-3-yl)-1H-[1,2,3]triazolo[4,5-c][1,5]naphthyridin-1-yl)piperidin-1-yl)-2-hydroxypropan-1-one] | < 100 nM | < 100 nM |
| CCC(=O)N1CCC(n2nnc3cnc4ccc(-c5cnc(N)c(C(F)(F)F)c5)nc4c32)CC1 [Compound 6] | < 100 nM | < 100 nM |
| COCC(=O)N1CCC(n2nnc3cnc4ccc(-c5cnc(N)c(C(F)(F)F)c5)nc4c32)CC1 [Compound 7] | < 100 nM | < 100 nM |
| Nc1ncc(-c2ccc3ncc4nnn(C5CCN(C(=O)C6CC6)CC5)c4c3n2)cc1C(F)(F)F [Compound 9] | < 100 nM | < 100 nM |
| Nc1ncc(-c2ccc3ncc4nnn(C5CCOCC5)c4c3n2)cc1C(F)(F)F [Compound 10] | < 100 nM | < 100 nM |
| Nc1ncc(-c2ccc3ncc4nnn(Cc5ccc(F)cc5)c4c3c2)cn1 [Compound 12] | < 100 nM | < 100 nM |
| Nc1ncc(-c2ccc3ncc4nnn(-c5ccc6[nH]ncc6c5)c4c3c2)cc1C(F)(F)F [Compound 14] | < 100 nM | < 100 nM |
| CC(C)(C#N)c1ccc(-n2nnc3cnc4ccc(-c5cnc(N)c(C(F)(F)F)c5)nc4c32)cn1 [Compound 16] | < 100 nM | < 100 nM |
| CC(C)(C#N)c1ccc(-n2nnc3cnc4ccc(-c5cnc(N)c(C(F)(F)F)c5)nc4c32)cc1 [Compound 17] | < 100 nM | < 100 nM |
| C[C@@H](O)C(=O)N1CCC(n2nnc3cnc4ccc(-c5cnc(N)c(C(F)(F)F)c5)nc4c32)CC1 [Compound 21, (R)-1-(4-(8-(6-amino-5-(trifluoromethyl)pyridin-3-yl)-1H-[1,2,3]triazolo[4,5-c][1,5]naphthyridin-1-yl)piperidin-1-yl)-2-hydroxypropan-1-one] | < 100 nM | < 100 nM |
| Nc1ncc(-c2ccc3ncc4nnn(C5CCN(C(=O)CO)CC5)c4c3n2)cc1C(F)(F)F [Compound 25] | < 100 nM | < 100 nM |
| CC(C)(O)C(=O)N1CCC(n2nnc3cnc4ccc(-c5cnc(N)c(C(F)(F)F)c5)nc4c32)CC1 [Compound 26] | < 100 nM | < 100 nM |
| CC(C)C(=O)N1CCC(n2nnc3cnc4ccc(-c5cnc(N)c(C(F)(F)F)c5)nc4c32)CC1 [Compound 30, 1-(4-(8-(6-amino-5-(trifluoromethyl)pyridin-3-yl)-1H-[1,2,3]triazolo[4,5-c][1,5]naphthyridin-1-yl)piperidin-1-yl)-2-methylpropan-1-one] | < 100 nM | < 100 nM |
| N#CC1(C(=O)N2CCC(n3nnc4cnc5ccc(-c6cnc(N)c(C(F)(F)F)c6)nc5c43)CC2)CC1 [Compound 33] | < 100 nM | < 100 nM |
| CCCC(=O)N1CCC(n2nnc3cnc4ccc(-c5cnc(N)c(C(F)(F)F)c5)nc4c32)CC1 [Compound 35] | < 100 nM | < 100 nM |
| Cn1c(=O)n(-c2ccc(C(C)(C)C#N)nc2)c2c3cc(-c4cnc(N)nc4)ccc3ncc21 [Compound 42] | < 100 nM | < 100 nM |
| CN(C)C(=O)CN1CCC(n2nnc3cnc4ccc(-c5cnc(N)c(C(F)(F)F)c5)nc4c32)CC1 [Compound 43, 2-(4-(8-(6-amino-5-(trifluoromethyl)pyridin-3-yl)-1H-[1,2,3]triazolo[4,5-c][1,5]naphthyridin-1-yl)piperidin-1-yl)-N,N-dimethylacetamide] | < 100 nM | < 100 nM |
| CC1(CN2CCC(n3nnc4cnc5ccc(-c6cnc(N)c(C(F)(F)F)c6)nc5c43)CC2)COC1 [Compound 44] | < 100 nM | < 100 nM |
| CCNC(=O)N1CCC(n2nnc3cnc4ccc(-c5cnc(N)c(C(F)(F)F)c5)nc4c32)CC1 [Compound 45] | < 100 nM | < 100 nM |
| Nc1ncc(-c2ccc3ncc4nnn(C5CCN(CCO)CC5)c4c3n2)cc1C(F)(F)F [Compound 46] | < 100 nM | < 100 nM |

| SMILES | IC50 (mTOR kinase) | IC50 (PI3Kα kinase) |
| --- | --- | --- |
| CC(C)(C#N)c1ccc(-c2nnc3cnc4ccc(-c5cnc(N)c(C(F)(F)F)c5)cc4n23)cc1 [Compound 49, 2-(4-(8-(6-amino-5-(trifluoromethyl)pyridin-3-yl)-[1,2,4]triazolo[4,3-a]quinoxalin-1-yl)phenyl)-2-methylpropanenitrile] | < 100 nM | < 100 nM |
| CC(C)(C#N)c1ccc(-c2nnc3cnc4ccc(-c5ccc(N)nc5)cc4n23)cc1 [Compound 50] | < 100 nM | < 100 nM |
| CC(C)(C#N)c1ccc(-c2nnc3cnc4ccc(-c5ccc6nc(N)sc6c5)cc4n23)cc1 [Compound 52] | < 100 nM | < 100 nM |
| CC(C)(C#N)c1ccc(-c2nnc3cnc4ccc(-c5cnc6[nH]ncc6c5)cc4n23)cc1 [Compound 53] | < 100 nM | < 100 nM |
| CC(C)(C#N)c1ccc(-c2nnc3cnc4ccc(-c5ccc6nc(N)oc6c5)cc4n23)cc1 [Compound 55] | < 100 nM | < 100 nM |
| CC(C)(C#N)c1ccc(-c2nnc3cnc4ccc(-c5ccc6nc(N)sc6c5)cc4n23)cn1 [Compound 56] | < 100 nM | < 100 nM |
| Cc1cc(-c2ccc3ncc4nnc(-c5ccc(C(C)(C)C#N)cc5)n4c3c2)cnc1N [Compound 58] | < 100 nM | < 100 nM |
| N#Cc1cccc(-c2nnc3cnc4ccc(-c5ccc6nc(N)sc6c5)cc4n23)c1 [Compound 63] | < 100 nM | < 100 nM |
| CC(C)(C#N)c1ccc(-c2nnc3cnc4ccc(-c5cnc(N)c(F)c5)cc4n23)cc1 [Compound 66] | < 100 nM | < 100 nM |
| COc1cc(-c2ccc3ncc4nnc(-c5ccc(C(C)(C)C#N)cc5)n4c3c2)cnc1N [Compound 72] | < 100 nM | < 100 nM |
| CCOc1cc(-c2ccc3ncc4nnc(-c5ccc(C(C)(C)C#N)cc5)n4c3c2)cnc1N [Compound 75] | < 100 nM | < 100 nM |
| Nc1ncc(-c2ccc3ncc4ncn(C5CCN(C(=O)C6CC6)CC5)c4c3n2)cc1C(F)(F)F [Compound 88, (4-(8-(6-amino-5-(trifluoromethyl)pyridine-3-yl)-1H-imidazo[4,5-c][1,5]naphthyridin-1-yl)piperidin-1-yl)(cyclopropyl)methanone] | < 100 nM | < 100 nM |
| CCC(=O)N1CCC(n2cnc3cnc4ccc(-c5cnc(N)c(C(F)(F)F)c5)nc4c32)CC1 [Compound 96] | < 100 nM | < 100 nM |
| CN(C)C(=O)CN1CCC(n2cnc3cnc4ccc(-c5cnc(N)c(C(F)(F)F)c5)nc4c32)CC1 [Compound 98] | < 100 nM | < 100 nM |
| CC(=O)N1CCC(n2cnc3cnc4ccc(-c5cnc(N)c(C(F)(F)F)c5)nc4c32)CC1 [Compound 102] | < 100 nM | < 100 nM |
| CS(=O)(=O)N1CCC(n2cnc3cnc4ccc(-c5cnc(N)c(C(F)(F)F)c5)nc4c32)CC1 [Compound 103] | < 100 nM | < 100 nM |
| CC1(CN2CCC(n3cnc4cnc5ccc(-c6cnc(N)c(C(F)(F)F)c6)nc5c43)CC2)COC1 [Compound 105] | < 100 nM | < 100 nM |
| Nc1ncc(-c2ccc3ncc4ncn(C5CCOCC5)c4c3n2)cc1C(F)(F)F [Compound 106] | < 100 nM | < 100 nM |
| C[C@H](O)C(=O)N1CCC(n2cnc3cnc4ccc(-c5cnc(N)c(C(F)(F)F)c5)nc4c32)CC1 [Compound 107] | < 100 nM | < 100 nM |
| Cc1nc2cnc3ccc(-c4cnc(N)c(C(F)(F)F)c4)nc3c2n1C1CCN(C(=O)C2CC2)CC1 [Compound 119, (4-(8-(6-amino-5-(trifluoromethyl)pyridine-3yl)-2-methyl-1H-imidazo[4,5-c][1,5]naphthyridin-1-yl)piperidin-1-yl)(cyclopropyl)methanone] | < 100 nM | < 100 nM |
